SMILES strings stand for the structures.

By IC50 is commonly meant the concentration that inhibits the measured activity by half.

The first assay addresses T1, Retinol-binding protein 4 (Homo sapiens, UniProt P02753). Description: Inhibition of human recombinant RBP4-transthyretin interaction by FRET analysis.
On to `COc1ccc(Cl)cc1C(=O)N1CCN(c2ncnc3sc4c(c23)CCC4)C(C)C1` (centres undefined), for which the IC50 worked out at 1480 nM.
The same measure, in the same setting: the figure for `O=C(Cc1ccccc1C(F)(F)F)N1CCN(c2ncccc2C(F)(F)F)CC1` is more than 10000 nM; for `COC(=O)c1cccc(C(=O)N2CCC(c3ccccc3C(F)(F)F)CC2)c1` it is 600 nM; for `O=C(c1cccc(C(F)(F)F)c1)N1CCC(c2ccccc2C(F)(F)F)CC1` it is 2700 nM.
Still for that read-out and setting: the figure for `Cn1cnc(C(=O)N2CCC(c3ccccc3C(F)(F)F)CC2)c1` is 17 nM.
The same measure, in the same setting: the figure for `O=C(c1cc(C(F)(F)F)[nH]n1)N1CCC(c2ccccc2C(F)(F)F)CC1` is 120 nM; for `COc1ccc(Cl)cc1NC(=O)N1CCN(c2ncccc2C(F)(F)F)CC1C` (centres undefined) it is 350 nM; for `COC(=O)c1ccccc1NC(=O)N1CCC(c2ccccc2C(F)(F)F)CC1` it is 18 nM.
On to `COc1ccc(Cl)cc1NC(=O)N1CCN(c2ccccc2C(F)(F)F)CC1`, for which the half-inhibitory concentration (IC50) came out at 17 nM.
On to `COc1ccc(Cl)cc1NC(=O)N1CCN(c2ccccn2)CC1`, for which the IC50 was more than 30000 nM.
On the same count and under the same terms, the figure for `COc1ccc(Cl)cc1NC(=O)N1CCN(Cc2c(Cl)cccc2Cl)CC1` is 7500 nM; for `O=C(c1nccs1)N1CCC(c2ccccc2C(F)(F)F)CC1` it is 3 nM; for `O=C(Cc1ccccc1C(F)(F)F)N1CCN(c2ncnc3sc4c(c23)CCC4)CC1` it is 60 nM.
The same measure, in the same setting: the figure for `COc1ccc(Cl)cc1NC(=O)N1CCCN(c2ncccc2C(F)(F)F)CC1` is 670 nM.
On the same count and under the same terms, the figure for `FC(F)(F)c1cccc(CN2CCN(c3ncccc3C(F)(F)F)CC2)c1` is more than 10000 nM.
Regarding `COc1ccc(Cl)cc1NC(=O)N1CCC(c2ccccc2C(F)(F)F)CC1`, the IC50 stood at 23 nM.
On the same count and under the same terms, the figure for `Cn1cncc1C(=O)N1CCC(c2ccccc2C(F)(F)F)CC1` is 550 nM.

The target in the next assay is T1, Retinol-binding protein 4. Kind of assay: Displacement of [3H]-retinol from human recombinant RBP4 by scintillation proximity assay. For orientation: Loss of bound radioactivity is the signal in a displacement assay; it reports binding, not function.
Consider `COc1ccc(Cl)cc1C(=O)N1CCN(c2ncnc3sc4c(c23)CCC4)C(C)C1` (centres undefined), for which the half-maximal inhibitory concentration (IC50) was determined as 830 nM.
Still for that read-out and setting: the figure for `O=C(Cc1ccccc1C(F)(F)F)N1CCN(c2ncccc2C(F)(F)F)CC1` is 3610 nM; for `COC(=O)c1cccc(C(=O)N2CCC(c3ccccc3C(F)(F)F)CC2)c1` it is 830 nM; for `O=C(c1cccc(C(F)(F)F)c1)N1CCC(c2ccccc2C(F)(F)F)CC1` it is 920 nM.
The same measure, in the same setting: the figure for `Cn1cnc(C(=O)N2CCC(c3ccccc3C(F)(F)F)CC2)c1` is 110 nM; for `O=C(c1cc(C(F)(F)F)[nH]n1)N1CCC(c2ccccc2C(F)(F)F)CC1` it is 240 nM.
The same measure, in the same setting: under `COc1ccc(Cl)cc1NC(=O)N1CCN(c2ncccc2C(F)(F)F)CC1C` (centres undefined) stands 450 nM; under `COC(=O)c1ccccc1NC(=O)N1CCC(c2ccccc2C(F)(F)F)CC1`, 91 nM.
Turning to `COc1ccc(Cl)cc1NC(=O)N1CCN(c2ccccc2C(F)(F)F)CC1`, the IC50 amounted to 70 nM.
Still for that read-out and setting: the figure for `COc1ccc(Cl)cc1NC(=O)N1CCN(c2ccccn2)CC1` is more than 30000 nM; for `COc1ccc(Cl)cc1NC(=O)N1CCN(Cc2c(Cl)cccc2Cl)CC1` it is 4500 nM; for `O=C(c1nccs1)N1CCC(c2ccccc2C(F)(F)F)CC1` it is 51 nM.
Take `O=C(Cc1ccccc1C(F)(F)F)N1CCN(c2ncnc3sc4c(c23)CCC4)CC1`: the IC50 was 280 nM.
The same measure, in the same setting: the figure for `COc1ccc(Cl)cc1NC(=O)N1CCCN(c2ncccc2C(F)(F)F)CC1` is 480 nM.
As to `FC(F)(F)c1cccc(CN2CCN(c3ncccc3C(F)(F)F)CC2)c1`, the IC50 was more than 30000 nM.
On to `COc1ccc(Cl)cc1NC(=O)N1CCC(c2ccccc2C(F)(F)F)CC1`, for which the IC50 is 160 nM.
Still for that read-out and setting: under `Cn1cncc1C(=O)N1CCC(c2ccccc2C(F)(F)F)CC1` stands 840 nM.
